9 compounds from PMC8466728, “DNA Intercalators Inhibit Eukaryotic Ribosomal RNA Synthesis by Impairing the Initiation of Transcription” (Genes, 2021) can be followed below.

Test [1] concerns Pol-I transcription (rRNA synthesis) in HCT116 p53−/− cells. Description: IC50 of Pol-I transcription (rRNA synthesis) in cells. The note with it: p53 null HCT116 cells, triplicates, total RNA analyzed by S1 nuclease protection assay, read-out: IC50 (rRNA Synthesis). The test is classed as cell-based, human. As for the experimental part: (§1) Cells were grown until 70% confluent and then treated with compounds for 30 min. The following concentrations were used: ActD: AD1–3 nM; AD2–3 µM; Camptothecin (CPT): 8 µM; ethidium bromide (EB): 40 µM; crystal violet (CV): 20 µM; Pro: 2 µM; CX5461: 5 µM. RNA was purified using the RNeasy purification kit (Qiagen) following the manufacturer’s instructions and the RNA concentration was determined spectroscopically. A total 1 µg of RNA was converted to cDNA using the High Capacity RNA-to-cDNA reverse transcriptase kit (Applied Biosystems, Waltham, MA, USA). Then 47/45S pre-rRNA levels were analyzed on the LighCycler 480 thermocycler (Roche) using primers and conditions described previously.
Next, we determined IC50 concentrations for EtBr, Pro, CPT, DAPI and CV in cells by measuring the level of Pol-I transcription at various compound concentrations (Table 2). For this assay we used the HCT116 p53^−/− cell line to avoid any effect of p53 dependent repression of Pol-I transcription.

Test [2] relates to Pol-I specific transcription (human rRNA gene promoter). The test can be described thus: In vitro Pol-I specific (promoter-driven) transcription assay, HeLa nuclear extract, S1 nuclease protection. The test is classed as biochemical. The note with it: 1 µL HeLa nuclear extract, 100 ng plasmid DNA containing rRNA promoter, triplicates. The method, then: […] Reactions were supplemented with 1 µL HeLa nuclear extract or with highly purified general transcription factors (GTF: 2 µL SL1, 2.5 µL Pol-I and 0.1 µL UBF). S1 nuclease protection was performed as described with a 60 bp ^32P-5′-end labelled oligonucleotide containing a sequence identical to the region between −20 and +40 of the template strand in the human rRNA gene promoter. […] The standard deviations were calculated from three independent experiments.
We tested a range of DNA intercalators and minor/major groove binders for the potential to inhibit Pol-I and determined IC50 for each drug using an in vitro Pol-I specific transcription assay. This assay primarily measures the efficiency of the initial stages of transcription which include preinitiation complex (PIC) formation, first phosphodiester bond synthesis and promoter clearance (see reviews and for a detailed description of the Pol-I transcription cycle). The reactions were supplemented with supercoiled rDNA template and HeLa nuclear extract (NE) and the level of specific transcript was determined by S1 nuclease protection assay as described.

Test [3] relates to Pol-I transcription (47/45S pre-rRNA) in HCT116 p53−/− cells. Description: 47/45S pre-rRNA level in cells by qPCR. The test is classed as cell-based, human. The note with it: 30 min, CPT 8 µM, EB 40 µM, CV 20 µM, Pro 2 µM, CX5461 5 µM (Figure 5A). The method, then:
as §1
Pol-II and Pol-III transcripts were analyzed as described previously. All signals were normalized to 18S rRNA level. The standard deviation was calculated from three independent experiments.

For test [4], the system named is nascent RNA synthesis in HCT116 p53−/− cells. The test can be described thus: Nascent RNA detection in cells by 5EU incorporation (click labelling, confocal microscopy). The test is classed as cell-based, human. To be noted: EB 40 µM, Pro 2 µM, CX5461 5 µM, 30 min treatment then 1 h 5EU. As for the experimental part: Cells were grown until 50–60% confluent on sterilized glass slides (Superfrost® Plus microscope slides, Menzel-Glaser) and then were treated with compounds or vehicle (as indicated) for 30 min, followed by the addition of 5EU (5-Ethynyl-uridine, 1 mM final concentration) and further incubation for 1 h. The following concentrations were used: Actinomycin D (ActD): 3 µM; ethidium bromide (EB): 40 µM; proflavine (Pro): 2 µM; CX5461: 5 µM.
Cells were fixed with 3.7% paraformaldehyde and permeabilized with 0.5% Triton X-100 in PBS. Nascent RNA was fluorescently labelled using Click-IT® Cell Reaction Buffer Kit (Invitrogen, Waltham, MA, USA) supplemented with Cy5 Azide (Sigma Aldrich) according to manufacturer’s instruction. Nuclei were stained with Hoechst 33342 and images were acquired with a Leica TCS SP5 confocal microscope equipped with an x63 oil-filled objective. Leica Application Suite X (LAS X) software was used for quantification of 5EU incorporation. Box-and-whisker plots of quantification of 5EU incorporation were obtained with Excel. They show the median, the 25% and 75% quantiles, as well as outliers.
Although we see no significant effect of the intercalators and grove-binders on specific Pol-II transcription in vitro we performed experiments aiming to explore effect of these compounds on general level of Pol-II/III transcription in cells. To this end we used two approaches. Firstly, we measure the level of nascent RNA synthesis in […] p53^−/− cells treated with proflavine, ethidium bromide, CX-5461 (specific inhibitor of Pol-I transcription) at concentrations sufficient to inhibit about 90% of Pol-I transcription as shown in Figure 5A. As a control we used high concentration of ActD (3µM) that inhibits activity of all […] polymerases. Cells were treated with the selected compounds or a vehicle for 30 min and then 5EU (5-Ethynyl-uridine) was added and incubation was continued for another hour. During this time, 5EU is incorporated into any newly synthesized RNA, and the level of incorporation can later be assessed using a combination of “click” approach and confocal microscopy.

Read-outs that look alike come from different tables or passages of the source.

The term IC50 denotes the point on the concentration scale where inhibition reaches its midpoint. For the compound `Cc1c2ccncc2c(C)c2c1[nH]c1ccc(O)cc12` [9HE, 9-Hydroxyellipticine], the IC50 in test [1] was found to be 0.15 µM; in test [2], 0.42 µM. For `CN(C)c1ccc2cc3ccc(N(C)C)cc3nc2c1` [Acridine Orange, acridine orange], inhibition in test [2] was half-maximal at 1.55 µM (IC50). As to `CN(C)c1ccc(C(=C2C=CC(=[N+](C)C)C=C2)c2ccc(N(C)C)cc2)cc1` [Crystal violet, crystal violet], the IC50 in test [1] (Homo sapiens, HCT-116) is 4.94 µM; in test [2] it was 34.6 µM. In the case of `N=C(N)c1ccc(-c2cc3ccc(C(=N)N)cc3[nH]2)cc1` [DAPI, 4′,6-diamidino-2-phenylindole], it took 0.66 µM to reach half-maximal inhibition in test [2] (IC50).

Regarding `CC[n+]1c(-c2ccccc2)c2cc(N)ccc2c2ccc(N)cc21` [Ethidium bromide, ethidium bromide], the “inhibition of Pol-I transcription” value in test [3] is “about 90%”. The IC50 came to 9.16 µM in test [1] (Homo sapiens, HCT-116) and 0.0618 µM in test [2]. The “distribution (nucleolar localization) of nascent RNAs” value in test [4] is “affected the distribution of nascent RNAs”. Moreover, the “inhibition of all transcription (5EU incorporation), effect of ActD set to be 100% inhibition” value in test [4] (HCT116 p53−/− cells) was found to be 38%.

As to `CN1CCN(c2ccc3[nH]c(-c4ccc5[nH]c(-c6ccc(O)cc6)nc5c4)nc3c2)CC1` [Hoescht 33258, bisBenzamide (Hoechst 33258)], the half-inhibitory concentration (IC50) in test [2] was determined as 0.659 µM. Take `CN(C)c1ccc(C(=C2C=CC(=[N+](C)C)C=C2)c2ccc([N+](C)(C)C)cc2)cc1` [Methyl green, methyl green]: it took 5300 µM to reach half-maximal inhibition in test [2] (IC50). With `CC[N+](C)(CC)CCC[n+]1c(-c2ccccc2)c2cc(N)ccc2c2ccc(N)cc21` [Propidium Iodide, propidium iodide], in test [2], the half-maximal inhibitory concentration (IC50) worked out at 0.706 µM.

For `Nc1ccc2nc3ccc(N)cc3[s+]c2c1` [Thionine, thionine], in test [2], the IC50 was 4.7 µM.
